This passage reports IC50 results from patent US12435128B2, “Method for predicting therapeutic effect of LSD1 inhibitor based on expression of INSM1” (TAIHO PHARMACEUTICAL CO., LTD., priority 2017, dated 2025).

Common to all, as to format: cell-based
The test system of assay [1] is HEL cells (human acute myelocytic leukemia cell lines). The assay can be described thus: Cell-growth inhibition test: HEL cells. The settings on record: read-out: IC50 (nM), Cell-Growth Inhibition Test: HEL Cells. As for the experimental part:
(§1) Under the following conditions, an in vitro cell-growth inhibition test was performed with respect to HEL cells (human acute myelocytic leukemia cell lines), NCI-H1417 cells (human small-cell lung cancer cell lines), and NCI-H146 cells (human small-cell lung cancer cell lines).
(§2) The cells with the Example compound or with dimethylsulfoxide alone were cultured at 37° C. in a 5% carbon-dioxide-containing incubator for 5 days (HEL cells) or 10 days (NCI-H1417 cells and NCI-H146 cells). After culture, the plate was allowed to stand at room temperature for 30 minutes, and 100 μL of the supernatant was removed from each well to leave 100 μL of the cell culture solution. To each well containing the remaining 100 μL of the cell culture solution, the same amount of CellTiter-Glo 2.0 Assay (Promega, Cat #: G9242) was added. The microplate was shaken with a plate mixer for 1 minute and then allowed to stand in a dark place for 10 minutes. Thereafter, the luminescence intensity of viable cells in each well was measured using a microplate reader (PerkinElmer, EnSpire). […] Cell growth rate(%)=T/C×100 • T: The luminescence intensity in a well to which the test compound was added (count per second) • C: The luminescence intensity in a well to which dimethylsulfoxide alone was added (count per second)

Assay [2] deals with NCI-H1417 cells (human small-cell lung cancer cell lines). The assay can be described thus: Cell-growth inhibition test: NCI-H1417 cells. Particulars: read-out: IC50 (nM), Cell-Growth Inhibition Test: NCI-H1417 Cells. As for the experimental part:
as §1, §2

For assay [3], the system named is NCI-H146 cells (human small-cell lung cancer cell lines). Put plainly: Cell-growth inhibition test: NCI-H146 cells. The settings on record: NCI-H146 cells; read-out: IC50 (nM), Cell-Growth Inhibition Test: NCI-H146 Cells. As for the experimental part:
as §1, §2

For orientation: IC50 means the midpoint of a concentration-inhibition curve.

Each structure is given as a SMILES string. Where a name gives a salt, the structure may show the parent alone. Read-outs that look alike come from different tables or passages of the source.

For `CC(C)(O)Cn1ccc2cc(-c3ccc(CN4[C@@H]5CC[C@H]4[C@@H](N)C5)cc3-c3ccc(C#N)c(F)c3)c(F)cc21` (single isomer, unassigned) [Example 289, dihydrochloride], the IC50 in assay [1] was found to be 0.036 nM; in assay [2], 0.094 nM; in assay [3], 0.97 nM.
The matching figures for `N#Cc1ccc(-c2cc(CN3[C@@H]4CC[C@H]3[C@@H](N)C4)ccc2-c2cc3nnn(CC4(O)CCC4)c3c(Cl)c2F)cc1F` (single isomer, unassigned) [Example 286, dihydrochloride]: 0.036 nM, 0.083 nM and 0.17 nM.
As for `CCC(O)(CC)Cn1nnc2cc(-c3ccc(C(=O)N4C5CCC4CC(N)C5)cc3-c3ccc(C#N)c(F)c3)c(F)c(Cl)c21` (stereo not drawn) [Example 220, 5′-((3-endo)-3-amino-8-azabicyclo[3.2.1]octane-8-carbonyl)-2′-(7-chloro-1-(2-ethyl-2-hydroxybutyl)-6-fluoro-1H-benzo[d][1,2,3]triazol-5-yl)-3-fluoro-[1,1′-biphenyl]-4-carbonitrile], the IC50 in assay [1] was 1.09 nM; in assay [2], 1.03 nM; in assay [3] it was 1.81 nM.
The matching figures for `N#Cc1ccc(-c2cc(C(=O)N3[C@@H]4CC[C@H]3[C@@H](N)C4)ccc2-c2cc3nnn(CC4(O)CCC4)c3c(C#N)c2F)cc1F` (single isomer, unassigned) [Example 264]: 0.84 nM, 0.3 nM and 0.96 nM.
On to `Cn1ccc2cc(-c3ccc(C(=O)N4C5CCC4CC(N)C5)cc3-c3ccc(C#N)c(F)c3)c(F)cc21` (stereo not drawn) [Example 123, 4-[5-[(3-endo)-3-amino-8-azabicyclo[3.2.1]octane-8-carbonyl]-2-(6-fluoro-1-methyl-indol-5-yl)phenyl]-2-fluoro-benzonitrile], for which the IC50 is 1.99 nM in assay [1] (HEL cells), 3.57 nM in assay [2] (NCI-H1417 cells) and 1.39 nM in assay [3].
Consider `CC(C)(O)Cn1nnc2cc(-c3ccc(C(=O)N4C5CCC4CC(N)C5)cc3-c3ccc(C#N)c(F)c3)c(F)c(C(F)F)c21` (stereo not drawn) [Example 250, 5′-((3-endo)-3-amino-8-azabicyclo[3.2.1]octane-8-carbonyl)-2′-(7-(difluoromethyl)-6-fluoro-1-(2-hydroxy-2-methylpropyl)-1H-benzo[d][1,2,3]triazol-5-yl)-3-fluoro-[1,1′-biphenyl]-4-carbonitrile], for which the 50% inhibitory concentration (IC50) amounted to 2.36 nM in assay [1], 1.2 nM in assay [2] and 9.3 nM in assay [3].
The matching figures for `N#Cc1ccc(-c2cc(C(=O)N3C4CCC3CC(N)C4)ccc2-c2cc3nnn(CC4(O)CCC4)c3c(C(F)F)c2F)cc1F` (stereo not drawn) [Example 262, 5′-((3-endo)-3-amino-8-azabicyclo[3.2.1]octane-8-carbonyl)-2′-(7-(difluoromethyl)-6-fluoro-1-((1-hydroxycyclobutyl)methyl)-1H-benzo[d][1,2,3]triazol-5-yl)-3-fluoro-[1,1′-biphenyl]-4-carbonitrile]: 0.93 nM, 0.7 nM and 3.1 nM.
The matching figures for `Cc1c(F)c(-c2ccc(C(=O)N3[C@@H]4CC[C@H]3[C@@H](N)C4)cc2-c2ccc(C#N)c(F)c2)cc2nnn(CC(C)(C)O)c12` (single isomer, unassigned) [Example 228]: 0.68 nM, 0.3 nM and 0.51 nM.
`CNC(=O)c1cn(C)c2cc(F)c(-c3ccc(C(=O)N4[C@@H]5CC[C@H]4[C@@H](N)C5)cc3-c3ccc(C#N)c(F)c3)cc12` (single isomer, unassigned) [Example 237]: the IC50 was found to be 28.5 nM in assay [1], 6.63 nM in assay [2] and 5.14 nM in assay [3].
The matching figures for `CCC(O)(CC)Cn1ncc2cc(-c3ccc(C(=O)N4C5CCC4CC(N)C5)cc3-c3ccc(C#N)c(F)c3)c(F)cc21` (stereo not drawn) [Example 205, 5′-((3-endo)-3-amino-8-azabicyclo[3.2.1]octane-8-carbonyl)-2′-(1-(2-ethyl-2-hydroxybutyl)-6-fluoro-1H-indazol-5-yl)-3-fluoro-[1,1′-biphenyl]-4-carbonitrile]: 4.95 nM, 6.25 nM and 15.1 nM.
For `Cc1noc2cc(-c3ccc(C(=O)N4[C@@H]5CC[C@H]4[C@@H](N)C5)cc3-c3ccc(C#N)c(F)c3)c(F)cc12` (single isomer, unassigned) [Example 202], in that order: 0.24 nM, 0.62 nM and 0.73 nM.
Consider `CC(C)(O)CCn1ncc2cc(-c3ccc(C(=O)N4C5CCC4CC(N)C5)cc3-c3ccc(C#N)c(F)c3)c(F)cc21` (stereo not drawn) [Example 194, 5′-((3-endo)-3-amino-8-azabicyclo[3.2.1]octane-8-carbonyl)-3-fluoro-2′-(6-fluoro-1-(3-hydroxy-3-methylbutyl)-1H-indazol-5-yl)-[1,1′-biphenyl]-4-carbonitrile], for which the IC50 in assay [1] stood at 15.5 nM; in assay [2] it was 5.63 nM; in assay [3], 11.3 nM.
For `Cc1c(F)c(-c2ccc(C(=O)N3C4CCC3CC(N)C4)cc2-c2ccc(C#N)c(F)c2)cc2nnn(CC(C)(C)O)c12` (stereo not drawn) [Example 240, 5′-((3-endo)-3-amino-8-azabicyclo[3.2.1]octane-8-carbonyl)-3-fluoro-2′-(6-fluoro-1-(2-hydroxy-2-methylpropyl)-7-methyl-1H-benzo[d][1,2,3]triazol-5-yl)-[1,1′-biphenyl]-4-carbonitrile], the IC50 in assay [1] worked out at 4.2 nM; in assay [2], 2.55 nM; in assay [3], 4.81 nM.
The matching figures for `CC(C)(O)Cn1nnc2cc(-c3ccc(C(=O)N4[C@@H]5CC[C@H]4[C@@H](N)C5)cc3-c3ccc(C#N)c(F)c3)c(F)c(C#N)c21` (single isomer, unassigned) [Example 247]: 3.02 nM, 1.4 nM and 3.84 nM.
For `CC(C)(O)Cn1nnc2cc(-c3ccc(CN4[C@@H]5CC[C@H]4[C@@H](N)C5)cc3-c3ccc(C#N)c(F)c3)c(F)c(F)c21.Cl.Cl` (single isomer, unassigned) [Example 285, dihydrochloride], in that order: 0.046 nM, 0.09 nM and 0.49 nM.
The matching figures for `Cc1ccc(-c2ccc(CN3[C@@H]4CC[C@H]3[C@@H](N)C4)cc2-c2ccc(C#N)c(F)c2)c(F)c1` (single isomer, unassigned) [Example 283]: 0.79 nM, 2.1 nM and 11.1 nM.
For the compound `CN(C)C(=O)c1cn(C)c2cc(F)c(-c3ccc(C(=O)N4[C@@H]5CC[C@H]4[C@@H](N)C5)cc3-c3ccc(C#N)c(F)c3)cc12` (single isomer, unassigned) [Example 238], the values for the IC50 in assay [1], in assay [2] and in assay [3] were 26.1 nM, 10.8 nM and 17.7 nM, respectively.
The matching figures for `N#Cc1ccc(-c2cc(C(=O)N3C4CCC3CC(N)C4)ccc2-c2cc3nnn(CC4(O)CCC4)c3c(C#N)c2F)cc1F` (stereo not drawn) [Example 266, 5-(5-((3-endo)-3-amino-8-azabicyclo[3.2.1]octane-8-carbonyl)-4′-cyano-3′-fluoro-[1,1′-biphenyl]-2-yl)-6-fluoro-1-((1-hydroxycyclobutyl)methyl)-1H-benzo[d][1,2,3]triazole-7-carbonitrile]: 4.63 nM, 1.85 nM and 17.5 nM.
For `CC(C)(O)Cn1ccc2cc(-c3ccc(C(=O)N4C5CCC4CC(N)C5)cc3-c3ccc(C#N)c(F)c3)c(F)c(F)c21` (stereo not drawn) [Example 183, 5′-((3-endo)-3-amino-8-azabicyclo[3.2.1]octane-8-carbonyl)-2′-(6,7-difluoro-1-(2-hydroxy-2-methylpropyl)-1H-indol-5-yl)-3-fluoro-[1,1′-biphenyl]-4-carbonitrile], the figures for the IC50 in assay [1], in assay [2] and in assay [3] were 0.54 nM, 1.01 nM and 0.25 nM, respectively.
The matching figures for `N#Cc1ccc(-c2cc(C(=O)N3[C@@H]4CC[C@H]3[C@@H](N)C4)ccc2-c2cc3nnn(CC4(O)CCC4)c3c(F)c2F)cc1F` (single isomer, unassigned) [Example 254]: 0.2 nM, 0.18 nM and 0.36 nM.
For `CCC(O)(CC)Cn1nnc2cc(-c3ccc(C(=O)N4[C@@H]5CC[C@H]4[C@@H](N)C5)cc3-c3ccc(C#N)c(F)c3)c(F)c(Cl)c21` (single isomer, unassigned) [Example 218], in that order: 0.22 nM, 0.21 nM and 0.33 nM.
For `CCC(O)(CC)Cn1ncc2cc(-c3ccc(C(=O)N4[C@@H]5CC[C@H]4[C@@H](N)C5)cc3-c3ccc(C#N)c(F)c3)c(F)cc21` (single isomer, unassigned) [Example 206], in that order: 0.4 nM, 0.95 nM and 1.09 nM.
